Data reported in patent US8569229B2, “Compositions and methods which modulate G-protein signaling for the treatment of inflammatory disorders such as asthma and allergic conjunctivitis” (The Children's Hospital of Philadelphia, priority 2008, dated 2013).
“Also recorded” adds a separate entry of the source. Like-named read-outs stand apart in the source and are kept apart here.

Legend:
ERK1/2 = test: Immunoblot analysis of ERK1/2 phosphorylation in ASM cells; assay type: cell-based, human
Description: (§1) Detection of PDE4D5 mRNA transcripts: Total RNA was extracted from the cultured ASM cells using the TRIzol method (Invitrogen), and cDNAs were isolated by RT-PCR using the SuperScript First Strand Synthesis System kit from Invitrogen, with the following oligonucleotide primer sets (Integrated DNA Technologies): for PDE4D5, 5′-[…]-3′ (forward; SEQ ID NO: 2) and 5′-[…]-3′ (reverse; SEQ ID NO: 3); and for β-actin, 5′-[…]-3′ (forward; SEQ ID NO: 4) and 5′-[…]-3′ (reverse; SEQ ID NO: 5). The reaction volume was 20 μl and cycling conditions used were 35 cycles of 30 sec denaturation at 95° C., followed by 30 sec annealing at 60° C. and elongation at 72° C. for 30 sec. Ex-Tag (Takara Biotechnology) was used as DNA polymerase. […] Following protein extraction and the addition of gel-loading buffer, the extracts were loaded on a 10% SDS-PAGE gel for immunoblotting after transfer to a PVDF membrane. The membranes were then incubated overnight with monoclonal mouse anti-human primary antibodies directed against phospho-CREB and -ATF1, phospho-ERK1/2, or α-actin, and levels were detected by ECL after a 1-hr incubation with a 1:2,000 dilution of HRP-conjugated rabbit anti-mouse secondary antibody, followed by exposure to autoradiography film. The protein band intensities were quantified by densitometry. siRNA-mediated knockdown of PKA: ASM cells were seeded into 6-well plates and, at ˜40% confluency, the medium was replaced with the reduced serum-containing medium, Opti-MEM (Invitrogen). The cells were then transfected twice during a 24-hr interval with two pools of three siRNA duplexes, each pool targeted against the human PKAα or PKAγ catalytic subunits (Santa Cruz Biotechnology; sc-36240 and sc-36236, respectively), or with a non-targeted control (scrambled) siRNA duplex, using Oligofectamine (Invitrogen) as the transfection agent. The pools of siRNAs were applied to each well at a final concentration of 100 nM for each siRNA preparation. […] Transfection of ASM cells with adeno-βARK-ct: Adenovirus (adeno)-βARK-ct, an adenovirus vector encoding the βARK1 carboxyl-terminal domain which blocks Gβγ signaling (25,26), and adeno-β-gal, an adenovirus vector expressing lacZ as a negative control, were constructed using the AdenoX adenovirus construction kit (BD-Clontech). Recombinant plaques were isolated and propagated in HEK293 cells (Invitrogen), with viral purification using the cesium chloride gradient method, and viral titer detected by plaque assay. The ASM cells were transfected with either of the adenoviral vectors at a multiplicity of infection (MOI) of 100, and experiments were conducted at 24 hr following adenoviral tranfections. Pharmacodynamic studies of constrictor and relaxation responsiveness in rabbit ASM tissues: Following initial sedation and subsequent general anesthesia with intramuscular injections of xylazine (10 mg/kg) and ketamine (50 mg/kg), respectively, rabbits were sacrificed with an intravenously administered overdose of sodium pentobarbital (100 mg/kg). As described previously (16), the tracheae were excised via open thoracotomy, the loose connective tissue and epithelium were scraped and removed, and the tracheae were divided into 8 ring segments, each of 6-8 mm in length. […] After these incubations, the tissues were placed in organ baths containing modified Krebs-Ringer solution aerated with 5% CO2 in oxygen (pH of 7.35-7.40), and attached to force transducers to continuously monitor isometric tension. […] The constrictor and relaxation dose-response curves were analyzed with respect to each tissue's maximal isometric contractile force (Tmax) to ACh and maximal relaxation response (Rmax) to isoproterenol from the initial level of active cholinergic contraction. Statistical analyses: Results are expressed as mean±SE values. Comparisons between groups were made using the Student's t-test (two-tailed) or ANOVA with Tukey's post-test analysis, where appropriate.

PDE4D5 mRNA = test: Detection of PDE4D5 mRNA transcripts by RT-PCR in ASM cells; assay type: cell-based, human
Description: as §1

CREB/ATF1 = test: Immunoblot analysis of CREB/ATF1 phosphorylation in ASM cells; assay type: cell-based, human
Description: as §1

rabbit ASM tissues [1] = test: Constrictor responsiveness to acetylcholine (ACh) in isolated rabbit ASM tissues, isometric tension in organ bath
Description: as §1

rabbit ASM tissues [2] = test: Relaxation responsiveness to isoproterenol in isolated rabbit ASM tissues half-maximally contracted with ACh
Description: as §1

human ASM cells = test: Assay of cAMP PDE activity in ASM cell lysates; assay type: cell-based

COC(=O)[C@H](CC(C)C)NC(=O)c1ccc(NC[C@@H](N)CS)cc1-c1cccc2ccccc12 [GGTI-298]
effect on PGE2-induced phosphorylation of ERK1/2 (ERK1/2; PGE2 100 nM, 30 min): did not exhibit attenuated; also recorded: no effect | effect on isoproterenol (β2AR agonist)-induced phosphorylation of ERK1/2 (ERK1/2; isoproterenol 10 μM, 20 min): did not exhibit attenuated; also recorded: no effect

O=C1Nc2ccc(I)cc2/C1=C/c1cc(Br)c(O)c(Br)c1 [GW5074]
effect on PGE2-induced phosphorylation of ERK1/2 (ERK1/2; PGE2 100 nM, 30 min): completely ablated; also recorded: prevents | effect on isoproterenol (β2AR agonist)-induced phosphorylation of ERK1/2 (ERK1/2; isoproterenol 10 μM, 20 min): completely abrogated; also recorded: prevents

Oc1ccc(-c2nc(-c3ccncc3)c(-c3ccc(F)cc3)[nH]2)cc1 [SB202190]
effect of pretreatment on PGE2-induced upregulated PDE4D5 mRNA expression (PDE4D5 mRNA; PGE2 100 nM, 6 hr): neither the p38 MAPK nor JNK inhibitor (lanes 5 and 6, respectively) had an attenuating effect | effect of pretreatment on β2AR agonist (isoproterenol)-induced upregulated PDE4D5 mRNA expression (PDE4D5 mRNA; isoproterenol 10 μM, 6 hr): unaffected; also recorded: no effect | effect on PGE2-induced phosphorylation of CREB/ATF1 (CREB/ATF1; PGE2 100 nM, 30 min): neither PGE2-induced phosphorylation of ERK1/2 nor CREB/ATF was affected | effect on PGE2-induced phosphorylation of ERK1/2 (ERK1/2; PGE2 100 nM, 30 min): neither PGE2-induced phosphorylation of ERK1/2 nor CREB/ATF was affected

Oc1c2ccccc2c2c3c(cccc13)N=N2 [SP600125]
effect of pretreatment on β2AR agonist (isoproterenol)-induced upregulated PDE4D5 mRNA expression (PDE4D5 mRNA; isoproterenol 10 μM, 6 hr): no effect

CN(C)S(=O)(=O)c1ccc2c(c1)/C(=C/c1cc3c([nH]1)CCCC3)C(=O)N2 [SU6656]
effect of pretreatment on PGE2-induced upregulated PDE4D5 mRNA expression (PDE4D5 mRNA; PGE2 100 nM, 6 hr): ablated | effect of pretreatment on PGE2-induced upregulated PDE4D5 mRNA expression (PDE4D5 mRNA; PGE2 100 nM, 6 hr, listed as Src inhibitor): markedly inhibited | effect of pretreatment on β2AR agonist (isoproterenol)-induced upregulated PDE4D5 mRNA expression (PDE4D5 mRNA; isoproterenol 10 μM, 6 hr): prevented; also recorded: ablated | effect on PGE2-induced phosphorylation of CREB/ATF1 (CREB/ATF1; PGE2 100 nM, 30 min): largely prevented; also recorded: ablated | effect on PGE2-induced phosphorylation of ERK1/2 (ERK1/2; PGE2 100 nM, 30 min): largely prevented; also recorded: ablated

N#CC(=C(/N)Sc1ccccc1N)/C(C#N)=C(\N)Sc1ccccc1N [U0126]
effect of pretreatment on PGE2-induced increase in constrictor responsiveness to ACh (rabbit ASM tissues [1]): abrogated | effect of pretreatment on salmeterol-induced increase in constrictor responsiveness to ACh (rabbit ASM tissues [1]): completely abrogated; also recorded: prevents | effect of the agent alone on constrictor responses to ACh (rabbit ASM tissues [1]): no significant effect; also recorded: did not exhibit any significant changes | effect of pretreatment on PGE2-induced impaired relaxation to isoproterenol (rabbit ASM tissues [2]): abrogated | effect of pretreatment on salmeterol-induced impaired relaxation to isoproterenol (rabbit ASM tissues [2]): completely ablated; also recorded: prevents | effect of the agent alone on relaxation responses to isoproterenol (rabbit ASM tissues [2]): no significant effect; also recorded: did not exhibit any significant changes | effect of pretreatment on PGE2-induced upregulated PDE4D5 mRNA expression (PDE4D5 mRNA): largely prevented; also recorded: ablated | effect of pretreatment on β2AR agonist (isoproterenol)-induced upregulated PDE4D5 mRNA expression (PDE4D5 mRNA): largely prevented; also recorded: ablated | effect on PGE2-induced phosphorylation of CREB/ATF1 (CREB/ATF1): abrogated; also recorded: ablated | effect on PGE2-induced phosphorylation of ERK1/2 (ERK1/2): completely abrogated; also recorded: ablated | effect on isoproterenol (β2AR agonist)-induced phosphorylation of ERK1/2 (ERK1/2): ablated | effect of pretreatment on PGE2- and forskolin-induced increases in PDE activity (human ASM cells): completely ablated | effect of pretreatment on salmeterol- and isoproterenol-induced increase in PDE activity (human ASM cells): prevented; also recorded: ablated | effect of the agent alone on basal PDE activity (human ASM cells): neither H89 nor U0126 alone had a significant effect
